Assay results published in patent publication US20240417410A1, “TRICYCLIC COMPOUNDS FOR THE TREATMENT OF CANCER” (Hoffmann-La Roche Inc., priority 2023, published 2024).
Read-outs that look alike come from different tables or passages of the source.

How the values were obtained:
Assay in all cases: Cell proliferation, CTG 3D, 7 d
Format in all cases: cell-based
AML-193 = details: Homo sapiens
Method in brief: (§1)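 Luminescent ATP signal (CellTiter-Glo 3D) measured spheroid viability after a 7-day compound exposure. Dosing used nine 3-fold dilutions at 0.2% DMSO in ultra-low-adhesion plates. Inhibition was normalized to max and min controls and fitted for relative IC50.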

CHP-212 = details: Homo sapiens
Method in brief: as §1

HuT 78 = details: Homo sapiens, HuT78
Method in brief: as §1

KLE = details: Homo sapiens, KRAS (WT ampl)
Method in brief: as §1

KURAMOCHI = details: Homo sapiens, KRAS (WT ampl)
Method in brief: as §1

LU99 = details: Homo sapiens, Lu-99; LU99, KRAS (G12C)
Method in brief: as §1

Mino = details: Homo sapiens
Method in brief: as §1

NCI-H1355 = details: Homo sapiens
Method in brief: as §1

NCI-H1876 = details: Homo sapiens
Method in brief: as §1

NCI-H2030 = details: Homo sapiens; NCI-H2030, KRAS (G12C)
Method in brief: as §1

NCI-H2087 = details: Homo sapiens
Method in brief: as §1

NCI-H358 = details: Homo sapiens; NCI-H358, KRAS (G12C)
Method in brief: as §1

NCI-H747 = details: Homo sapiens
Method in brief: as §1

PK-59 = details: Homo sapiens; PK-59, KRAS (G12D)
Method in brief: as §1

PL-21 = details: Homo sapiens
Method in brief: as §1

Panc 02.13 = details: Homo sapiens
Method in brief: as §1

RD = details: Homo sapiens
Method in brief: as §1

SK-LU-1 = details: Homo sapiens; SK-LU-1, KRAS (G12D)
Method in brief: as §1

SK-MEL-2 = details: Homo sapiens
Method in brief: as §1

SNU-668 = details: Homo sapiens, SNU668
Method in brief: as §1

SW 1088 = details: Homo sapiens, SW1088
Method in brief: as §1

SW1271 = details: Homo sapiens
Method in brief: as §1

T24 = details: Homo sapiens, T-24; T24, HRAS (p.G12V)
Method in brief: as §1

TYK-nu = details: Homo sapiens
Method in brief: as §1

Toledo = details: Homo sapiens
Method in brief: as §1

**Q.** For `CO[C@@H](C)c1ncc(N2CCN(C)CC2)cc1-c1c2c3cc(cc4c3n1CCC4)-c1csc(n1)C[C@H](NC(=O)[C@H]1[C@H](C)[C@@H]1C)C(=O)N1CCC[C@H](N1)C(=O)OCC(C)(C)C2` (atropisomer, axis not shown; (M)) [Example 24, (1r,2R,3S)-N-[(7S,13S)-(20M)-20-[2-[(1S)-1-methoxyethyl]-5-(4-methylpiperazin-1-yl)-3-pyridyl]-17,17-dimethyl-8,14-dioxo-15-oxa-4-thia-9,21,30,31-tetrazahexacyclo[23.3.1.1^2,5.1^9,13.0^19,27.0^21,26]hentriaconta-1 (28),2,5 (31), 19,25 (29),26-hexaen-7-yl]-2,3-dimethyl-cyclopropanecarboxamide], which IC50 (AML-193; AML-193, NRAS (p.G13V), read-out: IC50) is on record?
**A.** 1.1 nM

**Q.** What about the IC50 (CHP-212; CHP-212, NRAS (p.Q61K), read-out: IC50) of the same compound?
**A.** 0.35 nM

**Q.** And the IC50 (HuT 78; HuT 78, NRAS (p.Q61K), read-out: IC50)?
**A.** 0.3 nM

**Q.** And the IC50 (KLE)?
**A.** 100 nM

**Q.** What about the IC50 (KURAMOCHI) of the same compound?
**A.** 100 nM

**Q.** What about the IC50 (LU99) of the same compound?
**A.** 0.59 nM

**Q.** What about the IC50 (Mino; Mino, NRAS (p.G13D), read-out: IC50) of the same compound?
**A.** 3.8 nM

**Q.** What about the IC50 (NCI-H1355; NCI-H1355, KRAS (G13C), read-out: IC50) of the same compound?
**A.** 22 nM

**Q.** What about the IC50 (NCI-H1876; NCI-H1876, NRAS (p.Q61K), read-out: IC50) of the same compound?
**A.** 3.1 nM

**Q.** And the IC50 (NCI-H2030)?
**A.** 0.34 nM

**Q.** And the IC50 (NCI-H2087; NCI-H2087, NRAS (p.Q61K), read-out: IC50)?
**A.** 0.21 nM

**Q.** What about the IC50 (NCI-H358) of the same compound?
**A.** 0.12 nM

**Q.** What about the IC50 (NCI-H747; NCI-H747, KRAS (G13D), read-out: IC50) of the same compound?
**A.** 0.72 nM

**Q.** What about the IC50 (PK-59) of the same compound?
**A.** 0.44 nM

**Q.** What about the IC50 (PL-21; PL-21, KRAS (A146V), read-out: IC50) of the same compound?
**A.** 1 nM

**Q.** And the IC50 (Panc 02.13; Panc 02.13, KRAS (Q61R), read-out: IC50)?
**A.** 4 nM

**Q.** What about the IC50 (RD; NRAS (p.Q61H), read-out: IC50) of the same compound?
**A.** 0.36 nM

**Q.** And the IC50 (SK-LU-1)?
**A.** 0.5 nM

**Q.** What about the IC50 (SK-MEL-2; SK-MEL-2, NRAS (p.Q61R), read-out: IC50) of the same compound?
**A.** 2 nM

**Q.** And the IC50 (SNU-668; SNU-668, KRAS (Q61K), read-out: IC50)?
**A.** 2 nM

**Q.** What about the IC50 (SW 1088; SW 1088, NRAS (p.Q61K), read-out: IC50) of the same compound?
**A.** 0.75 nM

**Q.** What about the IC50 (SW1271; SW1271, NRAS (p.Q61R), read-out: IC50) of the same compound?
**A.** 1.7 nM

**Q.** What about the IC50 (T24) of the same compound?
**A.** 0.3 nM

**Q.** What about the IC50 (TYK-nu; TYK-nu, NRAS (p.G12D and p.Q61K), read-out: IC50) of the same compound?
**A.** 0.34 nM

**Q.** And the IC50 (Toledo; KRAS (G13D), read-out: IC50)?
**A.** 100 nM

**Q.** Which results are given for `CCn1c(-c2cc(N3CCN(C)CC3)cnc2[C@H](C)OC)c2c3cc(ccc31)-c1csc(n1)C[C@H](NC(=O)[C@H]1C[C@@H]1C)C(=O)N1CCC[C@H](N1)C(=O)OCC(C)(C)O2` [Example A122, reference compound]?
**A.** IC50 (AML-193): 2.1 nM; IC50 (CHP-212; CHP-212): 1.1 nM; IC50 (HuT 78): 0.55 nM; IC50 (KLE): 100 nM; IC50 (KURAMOCHI): 100 nM; IC50 (LU99): 0.91 nM; IC50 (Mino; MINO): 1000 nM; IC50 (NCI-H1355; NCI-H1355): 33 nM; IC50 (NCI-H1876): 3.6 nM; IC50 (NCI-H2030): 0.56 nM; IC50 (NCI-H2087; NCI-H2087): 0.44 nM; IC50 (NCI-H358): 0.27 nM; IC50 (NCI-H747; NCI-H747): 0.91 nM; IC50 (PK-59): 0.62 nM; IC50 (PL-21; PL-21): 2.1 nM; IC50 (Panc 02.13): 15 nM; IC50 (RD): 0.7 nM; IC50 (SK-LU-1): 0.56 nM; IC50 (SK-MEL-2; SK-MEL-2): 3 nM; IC50 (SNU-668): 4.3 nM; IC50 (SW 1088): 2.6 nM; IC50 (SW1271; SW1271): 3 nM; IC50 (T24): 0.57 nM; IC50 (TYK-nu): 0.68 nM; IC50 (Toledo): 100 nM
